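Assay format: 96-well plates, 48-hour exposure. GI50 = concentration required for 50% inhibition of growth.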 Calls of active or inactive are those of the source. No stated cut-off is given here; in the data, active = GI50 up to about 1.1 µM and inactive = higher.
What was measured:
Experiment in all cases: DTP human tumour cell line panel, 48 h
ACHN = system: ACHN
NCI-H23 = system: NCI-H23
NCI-H460 = system: NCI-H460
UACC-257 = system: UACC-257
MCF7 = system: MCF7
NCI/ADR-RES = system: NCI/ADR-RES
T47D = system: T47D
HOP-62 = system: HOP-62
Hs-578T = system: Hs-578T
SR = system: SR
CAKI-1 = system: CAKI-1
KM12 = system: KM12
SK-MEL-2 = system: SK-MEL-2
Malme-3M = system: Malme-3M
HT-29 = system: HT-29
U-251 = system: U-251
A498 = system: A498
HL-60 = system: HL-60
MDA-MB-231 = system: MDA-MB-231
MOLT-4 = system: MOLT-4

Structure (SMILES) | GI50 (ACHN) | GI50 (NCI-H23) | GI50 (NCI-H460) | GI50 (UACC-257) | GI50 (MCF7) | GI50 (NCI/ADR-RES) | GI50 (T47D) | GI50 (HOP-62) | GI50 (Hs-578T) | GI50 (SR) | GI50 (CAKI-1) | GI50 (KM12) | GI50 (SK-MEL-2) | GI50 (Malme-3M) | GI50 (HT-29) | GI50 (U-251) | GI50 (A498) | GI50 (HL-60) | GI50 (MDA-MB-231) | GI50 (MOLT-4)
COC(=O)NC1(NC(=O)OC)NC(=O)c2cc(OC)c(OC)cc2N1 | 64 µM (inactive) | 50.2 µM (inactive) | 30.7 µM (inactive) | 45 µM (inactive) | 16.1 µM (inactive) | 31.5 µM (inactive) | 39.4 µM (inactive) | 3.14 µM (inactive) | 29.4 µM (inactive) | 25.4 µM (inactive) | 19.2 µM (inactive) | 35.8 µM (inactive) | 19 µM (inactive) |  |  |  |  |  |  | 
CC1(F)C=CC(=O)C=C1 | 59.6 µM (inactive) | > 100 µM (inactive) | > 100 µM (inactive) | 71.8 µM (inactive) | 31.8 µM (inactive) | 17.6 µM (inactive) |  | > 100 µM (inactive) | > 100 µM (inactive) | 32.6 µM (inactive) | 55.7 µM (inactive) | > 100 µM (inactive) | > 100 µM (inactive) | 18.4 µM (inactive) | 46.5 µM (inactive) | 24.7 µM (inactive) | > 100 µM (inactive) | 27.6 µM (inactive) | 40.1 µM (inactive) | 26.4 µM (inactive)
Cc1cnoc1NS(=O)(=O)c1ccc(Nc2nnc(/C=C/c3c(O)ccc4ccccc34)c(=O)n2N)cc1 | 22.2 µM (inactive) | 7.73 µM (inactive) |  |  | 18.2 µM (inactive) | 11.5 µM (inactive) | 20.1 µM (inactive) | 46 µM (inactive) | 29.2 µM (inactive) | 21.8 µM (inactive) | 27.5 µM (inactive) |  |  | 24 µM (inactive) | 58.6 µM (inactive) |  |  | 0.74 µM (active) |  | 0.658 µM (active)
O=c1[nH]c(-n2[nH]c3c(c2=O)CCCC3)nc(O)c1-c1ccccc1 | > 100 µM (inactive) | > 100 µM (inactive) | > 100 µM (inactive) | > 100 µM (inactive) |  | > 100 µM (inactive) | > 100 µM (inactive) |  | > 100 µM (inactive) | > 100 µM (inactive) | > 100 µM (inactive) | > 100 µM (inactive) | > 100 µM (inactive) | > 100 µM (inactive) | > 100 µM (inactive) | > 100 µM (inactive) | > 100 µM (inactive) | > 100 µM (inactive) | > 100 µM (inactive) | > 100 µM (inactive)
O=C(/C=C1/Nc2ccc([N+](=O)[O-])cc2N/C1=C/C(=O)c1ccccc1)c1ccccc1 | 39.8 µM (inactive) | 12.4 µM (inactive) | 13.7 µM (inactive) | > 100 µM (inactive) | 21 µM (inactive) | 18.3 µM (inactive) | 18.3 µM (inactive) | 12.1 µM (inactive) |  | 27.5 µM (inactive) | 26.7 µM (inactive) | 59.4 µM (inactive) | 0.385 µM (active) | 40.8 µM (inactive) | 71.1 µM (inactive) | 13.5 µM (inactive) | 21.4 µM (inactive) |  | 16.6 µM (inactive) | 22.5 µM (inactive)
CCCc1c2c3ccccc3nc-2nc2ccccn12 | 46.7 µM (inactive) | 0.863 µM (active) | 32.8 µM (inactive) | > 100 µM (inactive) |  | > 100 µM (inactive) | > 100 µM (inactive) | 25.4 µM (inactive) | > 100 µM (inactive) | 49.1 µM (inactive) | > 100 µM (inactive) | 49.4 µM (inactive) | > 100 µM (inactive) | 61.7 µM (inactive) | 43.6 µM (inactive) | 63.7 µM (inactive) | > 100 µM (inactive) | 35.6 µM (inactive) | 72.1 µM (inactive) | 67.5 µM (inactive)
CCOC(=O)/C(C#N)=C/c1coc2cc(C)cc(C)c2c1=O | > 100 µM (inactive) | > 100 µM (inactive) | > 100 µM (inactive) | > 100 µM (inactive) |  | > 100 µM (inactive) | > 100 µM (inactive) | > 100 µM (inactive) | > 100 µM (inactive) | > 100 µM (inactive) | > 100 µM (inactive) | > 100 µM (inactive) |  | 45.3 µM (inactive) | > 100 µM (inactive) | > 100 µM (inactive) | > 100 µM (inactive) | > 100 µM (inactive) | > 100 µM (inactive) | > 100 µM (inactive)
C1COCCN1.CN(C)c1ccc(-c2c(C#N)c(N)nc(S)c2C#N)cc1 | > 100 µM (inactive) | 60 µM (inactive) | 40.2 µM (inactive) | 82.4 µM (inactive) | 53.1 µM (inactive) | > 100 µM (inactive) |  | 87.3 µM (inactive) | 4.57 µM (inactive) | 23.2 µM (inactive) | 43.9 µM (inactive) |  | 34.4 µM (inactive) | > 100 µM (inactive) | > 100 µM (inactive) | > 100 µM (inactive) | 24.9 µM (inactive) | > 100 µM (inactive) | 34.4 µM (inactive) | 
O=[N+]([O-])/C(C(Cl)=C(Cl)Cl)=C1\NCCS1 | 61 µM (inactive) | 31.5 µM (inactive) | 83.9 µM (inactive) | 42.2 µM (inactive) | 36 µM (inactive) | 30.2 µM (inactive) |  | > 100 µM (inactive) | 27.4 µM (inactive) | 18.4 µM (inactive) | 45.7 µM (inactive) | 69.7 µM (inactive) |  | 19.7 µM (inactive) | 47.8 µM (inactive) | 45.8 µM (inactive) | 26.1 µM (inactive) | 16.9 µM (inactive) | 38.8 µM (inactive) | 21.9 µM (inactive)
CSC1=C(C#N)C(=O)N(c2ccc(Cl)cc2)C(=O)C1C#N (configuration not stated) | > 100 µM (inactive) | > 100 µM (inactive) | > 100 µM (inactive) | > 100 µM (inactive) | > 100 µM (inactive) |  | 74.8 µM (inactive) | > 100 µM (inactive) | 77.8 µM (inactive) | 15.4 µM (inactive) | > 100 µM (inactive) |  | > 100 µM (inactive) | > 100 µM (inactive) | > 100 µM (inactive) | > 100 µM (inactive) | 74.6 µM (inactive) | > 100 µM (inactive) | > 100 µM (inactive) | 97.5 µM (inactive)
CC(C(N)=O)N(C)C(=O)c1cnc2ccccc2c1 (configuration not stated) | > 100 µM (inactive) | > 10 µM (inactive) | > 100 µM (inactive) | > 100 µM (inactive) | > 100 µM (inactive) | > 100 µM (inactive) | > 100 µM (inactive) |  |  | > 100 µM (inactive) | > 100 µM (inactive) | > 100 µM (inactive) | > 100 µM (inactive) | > 100 µM (inactive) | > 100 µM (inactive) | > 100 µM (inactive) | > 100 µM (inactive) | > 100 µM (inactive) | > 100 µM (inactive) | > 100 µM (inactive)
O=c1oc2ccccc2n1CCCn1c(=O)oc2ccccc21 | 92.5 µM (inactive) | > 100 µM (inactive) | > 100 µM (inactive) | > 100 µM (inactive) | > 100 µM (inactive) | > 100 µM (inactive) |  | > 100 µM (inactive) | > 100 µM (inactive) | > 100 µM (inactive) | > 100 µM (inactive) | > 100 µM (inactive) | > 100 µM (inactive) | > 100 µM (inactive) | > 100 µM (inactive) | 47.9 µM (inactive) | > 100 µM (inactive) | > 100 µM (inactive) | > 100 µM (inactive) | > 100 µM (inactive)
COc1cc2oc(=O)cc(C)c2c(OC)c1O | > 100 µM (inactive) | > 100 µM (inactive) |  | > 100 µM (inactive) | > 100 µM (inactive) | > 100 µM (inactive) |  | > 100 µM (inactive) | 25.2 µM (inactive) | > 100 µM (inactive) |  | > 100 µM (inactive) | > 100 µM (inactive) | > 100 µM (inactive) | > 100 µM (inactive) | > 100 µM (inactive) | 26.1 µM (inactive) |  | > 100 µM (inactive) | > 100 µM (inactive)
CC1CCC2(NC1)OC1CC3C4CC=C5CC(OC6OC(CO)C(OC7OC(C)C(O)C(O)C7O)C(O)C6OC6OC(C)C(O)C(O)C6O)CCC5(C)C4CCC3(C)C1C2C (configuration not stated) | 3.91 µM (inactive) | 12.2 µM (inactive) | 3.55 µM (inactive) | 2.64 µM (inactive) | 2.32 µM (inactive) |  | 7.64 µM (inactive) | 4.09 µM (inactive) | 3.87 µM (inactive) | 3.08 µM (inactive) | 4.36 µM (inactive) | 3.46 µM (inactive) | 3.63 µM (inactive) | 2.46 µM (inactive) | 5.69 µM (inactive) | 2.84 µM (inactive) | 5.74 µM (inactive) | 4.41 µM (inactive) | 3.78 µM (inactive) | 8.55 µM (inactive)
CC(O)CCCOC(c1ccccc1)(c1ccccc1)c1ccccc1 (configuration not stated) | 14.6 µM (inactive) | 14.1 µM (inactive) | 16.1 µM (inactive) | 16.3 µM (inactive) | 14.7 µM (inactive) | 11.7 µM (inactive) |  | 17.3 µM (inactive) | 18.7 µM (inactive) | 20.1 µM (inactive) | 16 µM (inactive) | 14.3 µM (inactive) | 15.1 µM (inactive) | 14.5 µM (inactive) | 13.2 µM (inactive) | 16.4 µM (inactive) | 20.1 µM (inactive) | 17.6 µM (inactive) | 17.3 µM (inactive) | 16.6 µM (inactive)
Cc1ccc(N/C(=C(/C(Cl)=C(Cl)Cl)[N+](=O)[O-])n2nnc3ccccc32)cc1 | 21.4 µM (inactive) | 21.5 µM (inactive) | 18 µM (inactive) | 26 µM (inactive) | 29.1 µM (inactive) | 27.2 µM (inactive) | 22.5 µM (inactive) | 18.2 µM (inactive) | 25.8 µM (inactive) |  | 17.7 µM (inactive) | 21.2 µM (inactive) | 17.7 µM (inactive) | 16.1 µM (inactive) | 22 µM (inactive) |  |  |  |  | 9.64 µM (inactive)

From ChEMBL document CHEMBL1201862, “PubChem BioAssay data set” (2004)
